Values of other authors as cited in patent US8071577B2, “Multi-phase contraceptive preparation based on a natural estrogen” (Bayer Pharma Aktiengesellschaft, priority 2004, dated 2011).

System: ovulation
Details: daily dose known from the literature

Row | SMILES | ovulation-inhibitory dose
1 | C[C@]12CCC(=O)C=C1[C@@H]1C[C@@H]1[C@H]1[C@@H]3[C@@H]4C[C@@H]4[C@@]4(CCC(=O)O4)[C@@]3(C)CC[C@@H]12 [drospirenone] | 2.0-3.0 mg a day
2 | C[C@]12CCC3=C4CCC(=O)C=C4CC[C@H]3[C@@H]1CC[C@@]2(O)CC#N [dienogest] | 1.0 mg a day
